# From the supplement of paper PMC10307832
# What was measured:
# Test in all cases: relative viability (nuclei count vs DMSO), 5 days (fraction); higher = more cells survive
# NCI-H2126 = system: NCI-H2126
# Method in brief: (§1)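 Dosing by pin tool came one day after lung cancer cell lines were seeded in 1536-well plates, using either one drug or a fixed anchor-drug dose plus five library-drug doses (not always all listed) in √10 steps. After 5 days, nuclei were counted on 4× images. Relative viability is treated-well nuclei count divided by vehicle-well nuclei count, and values are medians of duplicate plates.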
# HCC-827 = system: HCC-827
# Method in brief: as §1
# NCI-H1650 = system: NCI-H1650
# Method in brief: as §1
# LK-2 = system: LK-2
# Method in brief: as §1
# COR-L23 = system: COR-L23
# Method in brief: as §1
# EKVX = system: EKVX
# Method in brief: as §1
# NCI-H2087 = system: NCI-H2087
# Method in brief: as §1
# BEN = system: BEN
# Method in brief: as §1
# EMC-BAC-2 = system: EMC-BAC-2
# Method in brief: as §1
# NCI-H1915 = system: NCI-H1915
# Method in brief: as §1
# EPLC-272H = system: EPLC-272H
# Method in brief: as §1
# NCI-H1793 = system: NCI-H1793
# Method in brief: as §1
# LCLC-103H = system: LCLC-103H
# Method in brief: as §1
# HCC-44 = system: HCC-44
# Method in brief: as §1
# NCI-H2347 = system: NCI-H2347
# Method in brief: as §1
# LXF-289 = system: LXF-289
# Method in brief: as §1
# A-427 = system: A-427
# Method in brief: as §1
# SW 1573 = system: SW 1573
# Method in brief: as §1
# NCI-H1651 = system: NCI-H1651
# Method in brief: as §1
# 201T = system: 201T
# Method in brief: as §1
# NCI-H358 = system: NCI-H358
# Method in brief: as §1
# NCI-H460 = system: NCI-H460
# Method in brief: as §1
smiles,measurement,setting,value
O=C(O)CCCCC(CCSCc1ccccc1)SCc1ccccc1 (centres undefined) [CPI-613] + CC(=O)c1c(C)c2cnc(Nc3ccc(N4CCNCC4)cn3)nc2n(C2CCCC2)c1=O [Palbociclib] (partner 0.5 µM),relative viability,NCI-H2126; first compound 5 µM,0.334
same,relative viability,NCI-H2126; first compound 15.81 µM,0.363
same,relative viability,NCI-H2126; first compound 50 µM,0.338
same,relative viability,NCI-H2126; first compound 158.11 µM,0.213
same,relative viability,NCI-H2126; first compound 500 µM,0.162
same,relative viability,HCC-827; first compound 5 µM,0.465
same,relative viability,HCC-827; first compound 15.81 µM,0.491
same,relative viability,HCC-827; first compound 50 µM,0.464
same,relative viability,HCC-827; first compound 158.11 µM,0.496
same,relative viability,HCC-827; first compound 500 µM,0.417
same,relative viability,NCI-H1650; first compound 5 µM,0.326
same,relative viability,NCI-H1650; first compound 15.81 µM,0.276
same,relative viability,NCI-H1650; first compound 50 µM,0.317
same,relative viability,NCI-H1650; first compound 158.11 µM,0.0807
same,relative viability,NCI-H1650; first compound 500 µM,0.0173
same,relative viability,LK-2; first compound 5 µM,0.766
same,relative viability,LK-2; first compound 15.81 µM,0.684
same,relative viability,LK-2; first compound 50 µM,0.726
same,relative viability,LK-2; first compound 158.11 µM,0.532
same,relative viability,LK-2; first compound 500 µM,0.547
same,relative viability,COR-L23; first compound 5 µM,0.285
same,relative viability,COR-L23; first compound 15.81 µM,0.321
same,relative viability,COR-L23; first compound 50 µM,0.324
same,relative viability,COR-L23; first compound 158.11 µM,0.11
same,relative viability,COR-L23; first compound 500 µM,0.0343
same,relative viability,EKVX; first compound 5 µM,0.372
same,relative viability,EKVX; first compound 15.81 µM,0.449
same,relative viability,EKVX; first compound 50 µM,0.404
same,relative viability,EKVX; first compound 500 µM,0.378
same,relative viability,NCI-H2087; first compound 5 µM,0.253
same,relative viability,NCI-H2087; first compound 15.81 µM,0.197
same,relative viability,NCI-H2087; first compound 50 µM,0.19
same,relative viability,NCI-H2087; first compound 158.11 µM,0.0923
same,relative viability,NCI-H2087; first compound 500 µM,0.0098
same,relative viability,BEN; first compound 5 µM,0.457
same,relative viability,BEN; first compound 15.81 µM,0.506
same,relative viability,BEN; first compound 50 µM,0.487
same,relative viability,BEN; first compound 158.11 µM,0.483
same,relative viability,BEN; first compound 500 µM,0.42
same,relative viability,EMC-BAC-2; first compound 5 µM,0.524
same,relative viability,EMC-BAC-2; first compound 15.81 µM,0.506
same,relative viability,EMC-BAC-2; first compound 50 µM,0.514
same,relative viability,EMC-BAC-2; first compound 158.11 µM,0.267
same,relative viability,EMC-BAC-2; first compound 500 µM,0.265
same,relative viability,NCI-H1915; first compound 5 µM,0.5
same,relative viability,NCI-H1915; first compound 15.81 µM,0.494
same,relative viability,NCI-H1915; first compound 50 µM,0.506
same,relative viability,NCI-H1915; first compound 158.11 µM,0.23
same,relative viability,NCI-H1915; first compound 500 µM,0.0812
same,relative viability,EPLC-272H; first compound 5 µM,0.348
same,relative viability,EPLC-272H; first compound 15.81 µM,0.315
same,relative viability,EPLC-272H; first compound 50 µM,0.306
same,relative viability,EPLC-272H; first compound 158.11 µM,0.316
same,relative viability,EPLC-272H; first compound 500 µM,0.259
same,relative viability,NCI-H1793; first compound 5 µM,0.269
same,relative viability,NCI-H1793; first compound 15.81 µM,0.33
same,relative viability,NCI-H1793; first compound 50 µM,0.258
same,relative viability,NCI-H1793; first compound 158.11 µM,0.112
same,relative viability,NCI-H1793; first compound 500 µM,0.0566
same,relative viability,LCLC-103H; first compound 5 µM,0.464
same,relative viability,LCLC-103H; first compound 15.81 µM,0.456
same,relative viability,LCLC-103H; first compound 50 µM,0.455
same,relative viability,LCLC-103H; first compound 158.11 µM,0.343
same,relative viability,LCLC-103H; first compound 500 µM,0.213
same,relative viability,HCC-44; first compound 5 µM,0.959
same,relative viability,HCC-44; first compound 15.81 µM,0.954
same,relative viability,HCC-44; first compound 50 µM,1.04
same,relative viability,HCC-44; first compound 158.11 µM,0.6
same,relative viability,HCC-44; first compound 500 µM,0.606
same,relative viability,NCI-H2347; first compound 5 µM,0.434
same,relative viability,NCI-H2347; first compound 15.81 µM,0.379
same,relative viability,NCI-H2347; first compound 50 µM,0.404
same,relative viability,NCI-H2347; first compound 158.11 µM,0.392
same,relative viability,NCI-H2347; first compound 500 µM,0.22
same,relative viability,LXF-289; first compound 5 µM,0.561
same,relative viability,LXF-289; first compound 15.81 µM,0.59
same,relative viability,LXF-289; first compound 50 µM,0.558
same,relative viability,LXF-289; first compound 158.11 µM,0.509
same,relative viability,LXF-289; first compound 500 µM,0.393
same,relative viability,A-427; first compound 5 µM,0.519
same,relative viability,A-427; first compound 15.81 µM,0.477
same,relative viability,A-427; first compound 50 µM,0.486
same,relative viability,A-427; first compound 158.11 µM,0.332
same,relative viability,A-427; first compound 500 µM,0.384
same,relative viability,SW 1573; first compound 5 µM,0.336
same,relative viability,SW 1573; first compound 15.81 µM,0.579
same,relative viability,SW 1573; first compound 50 µM,0.384
same,relative viability,SW 1573; first compound 158.11 µM,0.0841
same,relative viability,SW 1573; first compound 500 µM,0.056
same,relative viability,NCI-H1651; first compound 5 µM,0.51
same,relative viability,NCI-H1651; first compound 15.81 µM,0.466
same,relative viability,NCI-H1651; first compound 50 µM,0.487
same,relative viability,NCI-H1651; first compound 158.11 µM,0.46
same,relative viability,NCI-H1651; first compound 500 µM,0.514
same,relative viability,201T; first compound 5 µM,0.341
same,relative viability,201T; first compound 15.81 µM,0.34
same,relative viability,201T; first compound 50 µM,0.353
same,relative viability,201T; first compound 158.11 µM,0.185
same,relative viability,201T; first compound 500 µM,0.204
same,relative viability,NCI-H358; first compound 5 µM,0.114
same,relative viability,NCI-H358; first compound 15.81 µM,0.134
same,relative viability,NCI-H358; first compound 50 µM,0.154
same,relative viability,NCI-H358; first compound 158.11 µM,0.0757
same,relative viability,NCI-H358; first compound 500 µM,0.0449
same,relative viability,NCI-H460; first compound 5 µM,0.197
same,relative viability,NCI-H460; first compound 15.81 µM,0.0984
same,relative viability,NCI-H460; first compound 50 µM,0.0912
same,relative viability,NCI-H460; first compound 158.11 µM,0.0107
same,relative viability,NCI-H460; first compound 500 µM,0.0087
